Key:
[1] = cited from earlier work
[2] = system: cells on PEGSSDA hydrogel; assay: Proliferation on PEGSSDA hydrogel softened with NAC, MTS assay; type: cell-based; settings: gels softened on day 4 with NAC 100 mmol for 60 minutes, vs control gels
Method: (§1) In a 96 well plate, we placed 10,000 cells on two sets of nine wells of 50 ul PEGSSDA hydrogel and the wells were filled with DMEM high glucose and cultured for a week. On day 4, one set of gels were softened using NAC 100 mmol for 60 minutes. Now proliferation of cells was compared between control gels and softened gels using MTS assays on day 7.

liver organoids = assay: APAP toxicity testing and N-acetyl-L-cysteine intervention in liver organoids; type: cell-based, human; settings: 10 mM APAP plus 20 mM NAC
U138 spheroids = assay: WNT pathway modulation in GBM U138 spheroids in hydrogel; type: cell-based
Method: For the WNT experiments, spheroids of GBM U 138(ATCC® HTB-16™) cell line were formed by hanging drop method in a 96 well plate by using 10,000 cells per drop of 20 μl, which were cultured for 72 hours in high glucose DMEM before being harvested to be setup in HyStem HP-Hydrogels. The spheroids were placed sandwiched between two layers of gel of total volume of 250 μl. The spheroids were then given different media compositions. Normal high glucose media being the control, the spheroids behaviour in WNT pathway agonist BIO and WNT pathway antagonist XAV939 were studied.
Experiments were conducted with single cell cancer spheroids with U138 cells. The WNT pathway was manipulated by adding either an agonist of the WNT pathway BIO or an antagonist of the WNT pathway XAV939 to the media.

[3] = system: cells on S3 stiff hydrogel; assay: Proliferation on S3 stiff hydrogel softened with collagenase, MTS assay; type: cell-based; settings: gels softened on day 4 with collagenase (1:10 dilution) for 10 minutes, vs control gels
Method: as §1, with “S3 stiff” for “PEGSSDA”, “collagenase (1:10 dilution)” for “NAC 100 mmol”, “10” for “60”, “contol” for “control”

For Cn1nnc2c(C(N)=O)ncn2c1=O [TMZ, temozolomide], the “concentrations in the cerebrospinal fluid (CSF) relative to plasma” value ([1]; CSF vs plasma) is given as “approximately 20%” and the “peak CSF concentrations” value ([1]; CSF) is given as 26 ± 4 µM.
With CC(=O)N[C@@H](CS)C(=O)O [NAC, N-acetyl-L-cysteine] the “proliferation of cells (MTS, day 7)” value [2] was “Reduced proliferation”, the detected urea production (liver organoids) was “increased over time” and the detected albumin production (liver organoids; day 14) was 98 ng/mL.
For Oc1nc(-c2ccc(C(F)(F)F)cc2)nc2c1CSCC2 [XAV939], the “cancer cells' phenotype (morphology)” value (U138 spheroids; WNT pathway antagonist added to the media) was “more epithelial appearance than a mesenchymal appearance”.
With O=C1Nc2cc(Br)ccc2/C1=C1/Nc2ccccc2/C1=N\O [BIO] the “proliferation and migration in the spheroids” value (U138 spheroids; WNT pathway agonist added to the media) was “shut down proliferation and migration”.
In the case of collagenase, the “proliferation of cells (MTS, day 7)” value [3] was “the same results were observed”.
